# Reference: PubChem BioAssay (NCI)
#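 Grown in 96-well plates, cells were treated for 48 hours with each compound at five concentrations. Insufficient inhibition: endpoint recorded as highest concentration tested. GI50: concentration for 50% inhibition of growth. At the TGI there is no net growth.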
# Columns and labels:
# Experiment in all cases: NCI tumour cell line growth inhibition, 48 h
# [1] = test system: COLO 205 colon
# [2] = test system: NCI-H460 lung
# [3] = test system: P388 leukemia
# [4] = test system: UO-31 renal
# [5] = test system: SN12C renal
# [6] = test system: MOLT-4 leukemia
# [7] = test system: M19-MEL melanoma
# [8] = test system: NCI-H23 lung
# [9] = test system: OVCAR-3 ovarian
# [10] = test system: SK-MEL-2 melanoma
# [11] = test system: SF-295 CNS
# [12] = test system: HT29 colon
# [13] = test system: K-562 leukemia
# [14] = test system: UACC-62 melanoma
# [15] = test system: HCT-15 colon
# [16] = test system: RXF 393 renal
# [17] = test system: CCRF-CEM leukemia
# [18] = test system: HCT-116 colon
# [19] = test system: OVCAR-4 ovarian
# [20] = test system: SNB-78 CNS
# [21] = test system: UACC-257 melanoma
# [22] = test system: KM12 colon
# [23] = test system: SNB-19 CNS
# [24] = test system: SN12K1 renal
# [25] = test system: SNB-75 CNS
# [26] = test system: MCF7 breast
# [27] = test system: HOP-92 NSCLC
# [28] = test system: SF-539 CNS
# [29] = test system: CAKI-1 renal
# [30] = test system: RPMI-8226 leukemia
# [31] = test system: EKVX NSCLC
# [32] = test system: KM20L2 colon
# [33] = test system: SK-OV-3 ovarian
# [34] = test system: MALME-3M melanoma
# [35] = test system: OVCAR-8 ovarian
# [36] = test system: LOX IMVI melanoma
# [37] = test system: HL-60(TB) leukemia
# [38] = test system: NCI/ADR-RES ovarian
# [39] = test system: A498 renal
# [40] = test system: DMS 273 small cell lung
# [41] = test system: NCI-H226 lung
# [42] = test system: SF-268 CNS
# [43] = test system: SK-MEL-5 melanoma
# [44] = test system: OVCAR-5 ovarian
# [45] = test system: SK-MEL-28 melanoma
# [46] = test system: HCC-2998 colon
# [47] = test system: SW-620 colon
# [48] = test system: IGROV1 ovarian
# [49] = test system: DLD-1 colon
# [50] = test system: A549 NSCLC
# [51] = test system: HOP-62 NSCLC
# [52] = test system: P388/ADR leukemia
# [53] = test system: XF 498 CNS
# [54] = test system: U251 CNS
# [55] = test system: 786-0 renal
# [56] = test system: BT-549 breast
# [57] = test system: NCI-H522 lung
# [58] = test system: ACHN renal
# [59] = test system: SR leukemia
# [60] = test system: MDA-MB-231 breast
# [61] = test system: DMS 114 small cell lung
# [62] = test system: HOP-18 NSCLC
# [63] = test system: M14 melanoma
# [64] = test system: T-47D breast
# [65] = test system: TK-10 renal
# [66] = test system: HS 578T breast
# [67] = test system: PC-3 prostate
# [68] = test system: DU-145 prostate
# [69] = test system: MDA-N
# [70] = test system: MDA-MB-435
smiles,measurement,setting,value
COc1ccc(OC)c(C#N)c1C#N (tested in a mixture with another compound),TGI,[1],> 100 µM
same,TGI,[2],> 100 µM
same,TGI,[3],> 100 µM
same,TGI,[4],> 100 µM
same,TGI,[5],> 100 µM
same,TGI,[6],> 100 µM
same,TGI,[7],> 100 µM
same,TGI,[8],> 100 µM
same,TGI,[9],> 100 µM
same,TGI,[10],> 100 µM
same,TGI,[11],> 100 µM
same,TGI,[12],> 100 µM
same,TGI,[13],> 100 µM
same,TGI,[14],> 100 µM
same,TGI,[15],> 100 µM
same,TGI,[16],> 100 µM
same,TGI,[17],> 100 µM
same,TGI,[18],> 100 µM
same,TGI,[19],> 100 µM
same,TGI,[20],> 100 µM
same,TGI,[21],> 100 µM
same,TGI,[22],> 100 µM
same,TGI,[23],> 100 µM
same,TGI,[24],> 100 µM
same,TGI,[25],> 100 µM
same,TGI,[26],> 100 µM
same,TGI,[27],> 100 µM
same,TGI,[28],> 100 µM
same,TGI,[29],> 100 µM
same,TGI,[30],> 100 µM
same,TGI,[31],> 88 µM
same,TGI,[32],> 100 µM
same,TGI,[33],> 100 µM
same,TGI,[34],> 100 µM
same,TGI,[35],> 100 µM
same,TGI,[36],> 100 µM
same,TGI,[37],> 100 µM
same,TGI,[38],> 100 µM
same,TGI,[39],> 100 µM
same,TGI,[40],> 100 µM
same,TGI,[41],> 100 µM
same,TGI,[42],> 100 µM
same,TGI,[43],> 100 µM
same,TGI,[44],> 100 µM
same,TGI,[45],> 100 µM
same,TGI,[46],> 100 µM
same,TGI,[47],> 100 µM
same,TGI,[48],> 100 µM
same,TGI,[49],> 100 µM
same,TGI,[50],> 100 µM
same,TGI,[51],> 100 µM
same,TGI,[52],> 100 µM
same,TGI,[53],> 100 µM
same,TGI,[54],> 100 µM
CCCCCCCCCCCCCCCCCCOP(=O)([O-])OCC[N+](C)(C)C,TGI,[1],0.5 µM
same,TGI,[2],1.94 µM
same,TGI,[3],15.1 µM
same,TGI,[4],36.1 µM
same,TGI,[5],1.53 µM
same,TGI,[6],5.89 µM
same,TGI,[55],0.169 µM
same,TGI,[7],16.3 µM
same,TGI,[56],5.82 µM
same,TGI,[8],30.4 µM
same,TGI,[9],2.79 µM
same,TGI,[10],3.11 µM
same,TGI,[11],3.49 µM
same,TGI,[57],1.46 µM
same,TGI,[12],2.2 µM
same,TGI,[58],0.37 µM
same,TGI,[13],10.4 µM
same,TGI,[14],20.8 µM
same,TGI,[15],3.24 µM
same,TGI,[16],23.1 µM
same,TGI,[17],2.52 µM
same,TGI,[59],> 100 µM
same,TGI,[18],3.12 µM
same,TGI,[19],1.29 µM
same,TGI,[20],15.8 µM
same,TGI,[21],25.6 µM
same,TGI,[22],0.632 µM
same,TGI,[23],47.9 µM
same,TGI,[24],26.9 µM
same,TGI,[25],1.7 µM
same,TGI,[26],3.11 µM
same,TGI,[27],1.07 µM
same,TGI,[28],2.59 µM
same,TGI,[29],22.8 µM
same,TGI,[30],2.64 µM
same,TGI,[60],3.5 µM
same,TGI,[31],8.29 µM
same,TGI,[32],12.5 µM
same,TGI,[33],43.4 µM
same,TGI,[34],3.38 µM
same,TGI,[61],26.8 µM
same,TGI,[35],2.39 µM
same,TGI,[36],1.96 µM
same,TGI,[37],5.83 µM
same,TGI,[38],5.22 µM
same,TGI,[39],> 46.4 µM
same,TGI,[40],13.4 µM
same,TGI,[41],3.31 µM
same,TGI,[42],2.21 µM
same,TGI,[43],17.5 µM
same,TGI,[44],6.82 µM
same,TGI,[45],42.2 µM
same,TGI,[46],7.01 µM
same,TGI,[47],6.66 µM
same,TGI,[48],26.1 µM
same,TGI,[49],16.9 µM
same,TGI,[50],5.13 µM
same,TGI,[51],1.38 µM
same,TGI,[52],27.3 µM
same,TGI,[62],30.1 µM
same,TGI,[53],25.4 µM
same,TGI,[54],4.71 µM
COc1cc([C@@H]2c3cc4c(cc3[C@@H](OC3OC5CO[C@@H](c6cccs6)OC5C(O)C3O)[C@H]3COC(=O)[C@H]23)OCO4)cc(OC)c1O (stereo partly specified),TGI,[1],5.06 µM
same,TGI,[2],2.59 µM
same,TGI,[3],1.93 µM
same,TGI,[4],12.1 µM
same,TGI,[63],3.71 µM
same,TGI,[5],2.33 µM
same,GI50,[6],0.0161 µM
same,TGI,[6],0.473 µM
same,TGI,[55],1.19 µM
same,TGI,[7],12.4 µM
same,TGI,[56],2.53 µM
same,TGI,[8],4.44 µM
same,TGI,[9],6.89 µM
same,TGI,[10],4.37 µM
same,TGI,[11],1.2 µM
same,TGI,[57],4.16 µM
same,TGI,[12],11.7 µM
same,TGI,[58],2.12 µM
same,TGI,[13],17.2 µM
same,TGI,[14],2.71 µM
same,TGI,[15],11.3 µM
same,TGI,[64],4.21 µM
same,TGI,[16],3.38 µM
same,TGI,[17],3.89 µM
same,TGI,[59],3.28 µM
same,TGI,[18],10.7 µM
same,TGI,[19],16.7 µM
same,TGI,[65],6.89 µM
same,TGI,[66],4.71 µM
same,TGI,[20],10.4 µM
same,TGI,[21],12.3 µM
same,TGI,[22],5.06 µM
same,TGI,[23],9.24 µM
same,TGI,[67],21.9 µM
same,TGI,[24],1.84 µM
same,TGI,[25],4 µM
same,TGI,[26],15.6 µM
same,TGI,[68],2.12 µM
same,TGI,[27],1.76 µM
same,TGI,[28],2.2 µM
same,TGI,[29],2 µM
same,TGI,[30],3.35 µM
same,TGI,[60],3.81 µM
same,TGI,[31],4.33 µM
same,TGI,[69],10.4 µM
same,TGI,[32],14.6 µM
same,TGI,[70],10.7 µM
same,TGI,[33],1.93 µM
same,TGI,[34],4.29 µM
same,TGI,[35],3.5 µM
same,TGI,[36],4.4 µM
same,TGI,[37],1.35 µM
same,TGI,[38],25 µM
same,TGI,[39],3.51 µM
same,TGI,[40],3.03 µM
same,TGI,[41],3.05 µM
same,TGI,[42],7.24 µM
same,TGI,[43],3.31 µM
same,TGI,[44],11.7 µM
same,TGI,[45],12.4 µM
same,TGI,[46],3.47 µM
same,TGI,[47],9.5 µM
same,TGI,[48],13.3 µM
same,TGI,[49],11.3 µM
same,TGI,[50],4.17 µM
same,TGI,[51],0.866 µM
same,TGI,[52],14.3 µM
same,TGI,[62],14.2 µM
same,TGI,[53],3.73 µM
same,TGI,[54],2.47 µM
